{
  "source": "PubChem BioAssay AID2060493",
  "about": "(Molecular Pharmacology Branch, DTP, NCI, 2025)",
  "tested_on": "616215-338-R-J1-PDC tumor spheroids, viability",
  "assay": "Anticancer human tumor 616215-338-R-J1-PDC patient-derived colon adenocarcinoma cell line growth inhibition [GQUAD]",
  "details": "spheroids with HUVEC and MSC; for viability, T/C: stronger effect = lower value",
  "excerpt": "DNA G-quadruplex Stabilizer Agents in Combinations in Complex Spheroids\nA high-throughput screen of multi-cell type tumor spheroids was designed to identify active combinations of DNA G-quadruplex stabilizer agents and targeted small molecules. Complex spheroids include a stromal component modeled by human endothelial cells (HUVEC) and fibroblasts modeled by human mesenchymal stem cells (MSCs). The concentration ranges selected for each drug and investigational agent were based upon clinically achievable concentrations if the clinical Cmax of the agent was known.\nCompounds. The drugs and investigational agents: pidnarulex (CX-5461; NSC782164), APTO-253 (NSC789042), BRACO-19 (NSC847499), peposertib (NSC802822), ceralasertib (NSC780249), elimusertib (NSC800525), camonsertib (NSC841442), AZD-1390 (NSC803789), olaparib (NSC753686), talazoparib (NSC767125), ART-558 (NSC835418), sotorasib (NSC818433), MRTX-1133 (NSC836407), SN-38 (NSC673596), topotecan (NSC609699), etoposide (NSC141540), doxorubicin (NSC123127), gemcitabine (NSC613327), 5-fluorouracil (NSC19893), paclitaxel (NSC125973), vemurafenib (NSC761431), panobinostat (NSC761190), R-306465 (JNJ-16241199; NSC773264), adavosertib (NSC754352), TP-3654 (NSC805149), carboplatin (NSC241240), KSQ-4279 (NSC840948), and staurosporine (NSC755774) were obtained from the National Cancer Institute (NCI) Developmental Therapeutics Program Chemical Repository (34). The FDA-approved anticancer drug set is available from the NCI Developmental Therapeutics Program. […] The stock solutions were prepared in dimethyl sulfoxide (DMSO, Sigma-Aldrich, St. Louis, MO, cat. D2650) at 800-fold the tested concentration and stored at -70 degrees C prior to their use. All drugs and investigational agents were tested over a range starting from a high concentration at or near the clinical Cmax and decreasing in half-log increments. If the clinical Cmax for an agent had not been determined, the highest concentration tested was 10 microM.\n2.3 Cell Culture. All cells were maintained in an incubator at 37 degrees C and 5% CO2 with 95% humidity. The PDC lines were cultured according to standard operating procedures established by the NCI PDMR. All PDCs were thawed and cultured in Matrigel-coated flasks prepared with a working solution of 1X Ham's F-12 nutrient mix, without supplementation (Invitrogen, cat. 11765054), 100 U/mL penicillin-streptomycin (Invitrogen, cat. 15140122), and 2.5% Matrigel (Corning Inc., cat. 354248) for the first three passages. The 857933-349-R-J2-PDC line was cultured in 6C/Colon 1B media, which includes advanced DMEM/F-12 (Thermo Fisher Scientific, cat. 12634028), 10 mM HEPES (Thermo Fisher Scientific, cat. 15630080), 1X GlutaMAX supplement (Thermo Fisher Scientific, cat. 35050061), 0.1 mg/mL primocin (InvivoGen, cat. ant-pm-2), 10% defined fetal bovine serum, heat inactivated (HyClone Laboratories Inc., cat. SH30070.03HI), 50% L-WRN conditioned media (ATCC, cat. CRL-3276), 1.25 mM N-Acetyl-L-cysteine (Sigma-Aldrich, cat. A9165), 10 mM nicotinamide (Sigma-Aldrich, cat. N0636), 1X B-27 supplement (Thermo Fisher Scientific, cat. 17504044), 1X N-2 supplement (Thermo Fisher Scientific, cat. 17502048), 10 microM Y-27632 dihydrochloride (Tocris Bioscience, cat. 1254), and 50 ng/mL human EGF recombinant protein (Thermo Fisher Scientific, cat. PHG0311). The 485176-168-R4-J1-PDC line was cultured in Panc media, which includes all 6C/Colon 1B media components plus 100 ng/mL human FGF-10 (Thermo Fisher Scientific, cat. 100-26), 500 nM SB-431542 (Selleckchem, cat. S1067), and gastrin (Tocris, cat. 3006).\n[…]",
  "note": "“And” between values parts separate entries of the source, which are not always exact repeats. Equal values may be shown once.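 Further: spheroids exposed to agents for 7 days before readout.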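 Wherever viability, T/C is given: percent viability relative to DMSO vehicle control wells taken as 100%.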",
  "data": [
    {"smiles": "C#Cc1c(F)ccc2cc(O)cc(-c3ncc4c(N5CC6CCC(C5)N6)nc(OCC56CCCN5CC(F)C6)nc4c3F)c12", "note": "(stereo not drawn) + Cc1cnc(CNC(=O)c2c(=O)c3ccc(N4CCCN(C)CC4)nc3n3c2sc2ccccc23)cn1", "values": [
      {"measurement": "IC50", "setting": "curve of first compound, second compound 0.0316 µM", "value": 4510, "unit": "nM"},
      {"measurement": "IC50", "setting": "curve of first compound, second compound 0.1 µM", "value": 422, "unit": "nM"},
      {"measurement": "IC50", "setting": "curve of first compound, second compound 0.316 µM", "value": "< 31.6", "unit": "nM"},
      {"measurement": "IC50", "setting": "curve of first compound, second compound 1 µM", "value": "< 31.6", "unit": "nM"},
      {"measurement": "IC50", "setting": "curve of first compound, second compound 3.16 µM", "value": 43.6, "unit": "nM"},
      {"measurement": "IC50", "setting": "curve of first compound, second compound 10 µM", "value": "< 31.6", "unit": "nM"},
      {"measurement": "viability, T/C", "setting": "second compound 0.0316 µM, first compound 0.0316 µM", "value": 98.8, "unit": "%"},
      {"measurement": "viability, T/C", "setting": "second compound 0.0316 µM, first compound 0.1 µM", "value": 88.4, "unit": "%"},
      {"measurement": "viability, T/C", "setting": "second compound 0.0316 µM, first compound 0.316 µM", "value": 103, "unit": "%"},
      {"measurement": "viability, T/C", "setting": "second compound 0.0316 µM, first compound 1 µM", "value": 67.6, "unit": "%"},
      {"measurement": "viability, T/C", "setting": "second compound 0.0316 µM, first compound 3.16 µM", "value": 63.8, "unit": "%"},
      {"measurement": "viability, T/C", "setting": "second compound 0.0316 µM, first compound 10 µM", "value": 27.8, "unit": "%"},
      {"measurement": "viability, T/C", "setting": "second compound 0.1 µM, first compound 0.0316 µM", "value": 64.3, "unit": "%"},
      {"measurement": "viability, T/C", "setting": "second compound 0.1 µM, first compound 0.1 µM", "value": 64.2, "unit": "%"},
      {"measurement": "viability, T/C", "setting": "second compound 0.1 µM, first compound 0.316 µM", "value": 51.9, "unit": "%"},
      {"measurement": "viability, T/C", "setting": "second compound 0.1 µM, first compound 1 µM", "value": 40.2, "unit": "%"},
      {"measurement": "viability, T/C", "setting": "second compound 0.1 µM, first compound 3.16 µM", "value": 28.7, "unit": "%"},
      {"measurement": "viability, T/C", "setting": "second compound 0.1 µM, first compound 10 µM", "value": 22.1, "unit": "%"},
      {"measurement": "viability, T/C", "setting": "second compound 0.316 µM, first compound 0.0316 µM", "value": 38.8, "unit": "%"},
      {"measurement": "viability, T/C", "setting": "second compound 0.316 µM, first compound 0.1 µM", "value": 40.5, "unit": "%"},
      {"measurement": "viability, T/C", "setting": "second compound 0.316 µM, first compound 0.316 µM", "value": 48.3, "unit": "%"},
      {"measurement": "viability, T/C", "setting": "second compound 0.316 µM, first compound 1 µM", "value": 40.8, "unit": "%"},
      {"measurement": "viability, T/C", "setting": "second compound 0.316 µM, first compound 3.16 µM", "value": 39.2, "unit": "%"},
      {"measurement": "viability, T/C", "setting": "second compound 0.316 µM, first compound 10 µM", "value": 19, "unit": "%"},
      {"measurement": "viability, T/C", "setting": "second compound 1 µM, first compound 0.0316 µM", "value": 34.7, "unit": "%"},
      {"measurement": "viability, T/C", "setting": "second compound 1 µM, first compound 0.1 µM", "value": 27.1, "unit": "%"},
      {"measurement": "viability, T/C", "setting": "second compound 1 µM, first compound 0.316 µM", "value": 40.9, "unit": "%"},
      {"measurement": "viability, T/C", "setting": "second compound 1 µM, first compound 1 µM", "value": 19.8, "unit": "%"},
      {"measurement": "viability, T/C", "setting": "second compound 1 µM, first compound 3.16 µM", "value": 20.8, "unit": "%"},
      {"measurement": "viability, T/C", "setting": "second compound 1 µM, first compound 10 µM", "value": 20.4, "unit": "%"},
      {"measurement": "viability, T/C", "setting": "second compound 3.16 µM, first compound 0.0316 µM", "value": 58.3, "unit": "%"},
      {"measurement": "viability, T/C", "setting": "second compound 3.16 µM, first compound 0.1 µM", "value": 27.7, "unit": "%"},
      {"measurement": "viability, T/C", "setting": "second compound 3.16 µM, first compound 0.316 µM", "value": 24.1, "unit": "%"},
      {"measurement": "viability, T/C", "setting": "second compound 3.16 µM, first compound 1 µM", "value": 15.6, "unit": "%"},
      {"measurement": "viability, T/C", "setting": "second compound 3.16 µM, first compound 3.16 µM", "value": 18.8, "unit": "%"},
      {"measurement": "viability, T/C", "setting": "second compound 3.16 µM, first compound 10 µM", "value": 7.2, "unit": "%"},
      {"measurement": "viability, T/C", "setting": "second compound 10 µM, first compound 0.0316 µM", "value": 21, "unit": "%"},
      {"measurement": "viability, T/C", "setting": "second compound 10 µM, first compound 0.1 µM", "value": 18.5, "unit": "%"},
      {"measurement": "viability, T/C", "setting": "second compound 10 µM, first compound 0.316 µM", "value": 22.3, "unit": "%"},
      {"measurement": "viability, T/C", "setting": "second compound 10 µM, first compound 1 µM", "value": 16.8, "unit": "%"},
      {"measurement": "viability, T/C", "setting": "second compound 10 µM, first compound 3.16 µM", "value": 14.8, "unit": "%"},
      {"measurement": "viability, T/C", "setting": "second compound 10 µM, first compound 10 µM", "value": 14.6, "unit": "%"}
    ]},
    {"smiles": "C=CCn1c(=O)c2cnc(Nc3ccc(N4CCN(C)CC4)cc3)nc2n1-c1cccc(C(C)(C)O)n1", "values": [
      {"measurement": "viability, T/C", "setting": "compound 0.0316 µM", "value": "106% and 108% and 101%"},
      {"measurement": "viability, T/C", "setting": "compound 0.1 µM", "value": "94.6% and 98.4% and 92.7%"},
      {"measurement": "viability, T/C", "setting": "compound 0.316 µM", "value": "53% and 53.7% and 76.8%"},
      {"measurement": "viability, T/C", "setting": "compound 1 µM", "value": "24.1% and 24.6% and 28.5%"},
      {"measurement": "viability, T/C", "setting": "compound 3.16 µM", "value": "13.3% and 13.7% and 23.5%"},
      {"measurement": "viability, T/C", "setting": "compound 10 µM", "value": "12.5% and 12% and 23.2%"},
      {"measurement": "IC50", "setting": "curve of compound", "value": "367 nM and 381 nM and 601 nM"}
    ]},
    {"smiles": "CC1COCCN1c1cc(-c2ccnn2C)c2ccnc(-c3ccn[nH]3)c2n1", "note": "(stereo not drawn)", "values": [
      {"measurement": "viability, T/C", "setting": "compound 0.0316 µM", "value": "98.8% and 101% and 103%"},
      {"measurement": "viability, T/C", "setting": "compound 0.1 µM", "value": "51.8% and 57% and 69.5%"},
      {"measurement": "viability, T/C", "setting": "compound 0.316 µM", "value": "38.8% and 31.3% and 37%"},
      {"measurement": "viability, T/C", "setting": "compound 1 µM", "value": "29.2% and 23.1% and 26.1%"},
      {"measurement": "viability, T/C", "setting": "compound 3.16 µM", "value": "24.5% and 18.4% and 26.3%"},
      {"measurement": "viability, T/C", "setting": "compound 10 µM", "value": "27.6% and 18.9% and 17.4%"},
      {"measurement": "IC50", "setting": "curve of compound", "value": "126 nM and 137 nM and 203 nM"}
    ]},
    {"smiles": "COc1cc(C2c3cc4c(cc3C(OC3OC5COC(C)OC5C(O)C3O)C3COC(=O)C23)OCO4)cc(OC)c1O", "note": "(stereo not drawn)", "values": [
      {"measurement": "viability, T/C", "setting": "compound 0.0316 µM", "value": "106% and 97.9% and 101%"},
      {"measurement": "viability, T/C", "setting": "compound 0.1 µM", "value": "93% and 95.6% and 92.9%"},
      {"measurement": "viability, T/C", "setting": "compound 0.316 µM", "value": "72.8% (2×) and 63.2%"},
      {"measurement": "viability, T/C", "setting": "compound 1 µM", "value": "41.4% and 57.3% and 43.4%"},
      {"measurement": "viability, T/C", "setting": "compound 3.16 µM", "value": "29.8% and 39.9% and 37.9%"},
      {"measurement": "viability, T/C", "setting": "compound 10 µM", "value": "24.3% and 21.6% and 20%"},
      {"measurement": "IC50", "setting": "curve of compound", "value": "749 nM and 1560 nM and 781 nM"}
    ]}
  ]
}
